In the supplement of paper PMC10307832:

Key:
Test in all cases: relative viability (nuclei count vs DMSO), 5 days (fraction); higher = more cells survive
Irinotecan + Navitoclax = compound: CCc1c2c(nc3ccc(OC(=O)N4CCC(N5CCCCC5)CC4)cc13)-c1cc3c(c(=O)n1C2)COC(=O)[C@]3(O)CC [Irinotecan] + CC1(C)CCC(c2ccc(Cl)cc2)=C(CN2CCN(c3ccc(C(=O)NS(=O)(=O)c4ccc(N[C@H](CCN5CCOCC5)CSc5ccccc5)c(S(=O)(=O)C(F)(F)F)c4)cc3)CC2)C1 [Navitoclax] (partner 0.5 µM)
How it was run: (§1)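 Relative viability is defined as nuclei in treated wells over nuclei in vehicle wells. Duplicate plates were run and medians reported. Lung cancer cell lines in 1536-well plates were dosed by pin tool one day after seeding, with one drug or with a fixed anchor-drug dose plus five library-drug doses (not always all listed) in √10 steps, and nuclei were counted after 5 days.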

RU-SKI 43 + OSI-027 = compound: CC[C@@H](C)CNCC(=O)N1CCC2=C([C@@H]1COC3=CC=CC(=C3)C)C=CS2 [RU-SKI 43] + COc1cccc2cc(-c3nc([C@H]4CC[C@H](C(=O)O)CC4)n4ncnc(N)c34)[nH]c12 [OSI-027] (partner 0.5 µM)
How it was run: as §1

RU-SKI 43 + Decitabine = compound: CC[C@@H](C)CNCC(=O)N1CCC2=C([C@@H]1COC3=CC=CC(=C3)C)C=CS2 [RU-SKI 43] + Nc1ncn([C@H]2C[C@H](O)[C@@H](CO)O2)c(=O)n1 [Decitabine] (partner 2 µM)
How it was run: as §1

Irinotecan + AZD7762 = compound: CCc1c2c(nc3ccc(OC(=O)N4CCC(N5CCCCC5)CC4)cc13)-c1cc3c(c(=O)n1C2)COC(=O)[C@]3(O)CC [Irinotecan] + NC(=O)Nc1cc(-c2cccc(F)c2)sc1C(=O)N[C@H]1CCCNC1 [AZD7762] (partner 0.2 µM)
How it was run: as §1

Cell Line	relative viability (Irinotecan + Navitoclax; first compound 0.6325 µM)	relative viability (Irinotecan + Navitoclax; first compound 2 µM)	relative viability (Irinotecan + Navitoclax; first compound 6.325 µM)	relative viability (Irinotecan + Navitoclax; first compound 20 µM)	relative viability (RU-SKI 43 + OSI-027; first compound 0.1 µM)	relative viability (RU-SKI 43 + OSI-027; first compound 0.3162 µM)	relative viability (RU-SKI 43 + OSI-027; first compound 1 µM)	relative viability (RU-SKI 43 + OSI-027; first compound 3.162 µM)	relative viability (RU-SKI 43 + OSI-027; first compound 10 µM)	relative viability (RU-SKI 43 + Decitabine; first compound 0.1 µM)	relative viability (RU-SKI 43 + Decitabine; first compound 0.3162 µM)	relative viability (RU-SKI 43 + Decitabine; first compound 1 µM)	relative viability (RU-SKI 43 + Decitabine; first compound 3.162 µM)	relative viability (RU-SKI 43 + Decitabine; first compound 10 µM)	relative viability (Irinotecan + AZD7762; first compound 0.6325 µM)	relative viability (Irinotecan + AZD7762; first compound 2 µM)	relative viability (Irinotecan + AZD7762; first compound 6.325 µM)	relative viability (Irinotecan + AZD7762; first compound 20 µM)
NCI-H1299	0.886	0.845	0.431	0.303	–	–	–	–	–	–	–	–	–	–	–	–	–	–
NCI-H1650	1.07	0.808	0.394	0.316	0.597	0.584	0.835	0.618	0.618	0.315	0.36	0.338	0.509	0.34	–	–	–	–
NCI-H647	1.03	0.39	0.194	0.177	0.647	0.864	0.755	0.918	0.707	0.383	0.404	0.393	0.43	0.353	0.294	0.273	0.131	0.2
NCI-H1944	0.653	0.26	0.195	0.205	0.428	0.397	0.503	0.445	0.404	0.449	0.4	0.423	0.473	0.442	0.414	0.276	0.21	0.153
NCI-H23	0.782	0.505	0.26	0.22	0.659	0.523	0.782	0.709	0.5	0.309	0.319	0.326	0.291	0.335	0.158	0.238	0.251	0.202
NCI-H358	–	–	–	–	0.597	0.642	0.975	0.865	0.564	0.199	0.184	0.248	0.217	0.19	0.38	0.508	0.339	0.349
NCI-H520	0.851	0.634	0.288	0.227	0.301	0.303	0.287	0.251	0.349	0.502	0.564	0.568	0.589	0.501	–	–	–	–
NCI-H1648	–	–	–	–	–	–	0.255	0.251	0.221	0.452	0.535	0.466	0.554	0.444	0.562	0.768	0.434	0.466
NCI-H2023	1	0.812	0.277	0.103	0.442	0.455	0.465	0.413	0.372	0.211	0.254	0.22	0.246	0.237	–	–	–	–
COR-L23	0.413	0.261	0.154	0.115	0.718	0.99	0.865	0.881	0.614	0.428	0.369	0.448	0.514	0.433	–	–	–	–
NCI-H1703	1.16	1.45	0.514	0.105	–	–	–	–	–	–	–	–	–	–	–	0.124	0.128	0.181
NCI-H1563	–	–	–	–	0.772	0.778	0.819	0.75	0.786	–	–	–	–	–	–	–	–	–
NCI-H2228	0.875	0.529	0.405	0.51	0.651	0.722	0.483	0.689	0.471	–	–	–	–	–	–	–	–	–
LCLC-103H	–	–	–	–	0.512	0.576	0.567	0.486	0.56	0.728	0.762	0.732	0.764	0.72	0.458	0.682	0.497	0.4
NCI-H1623	–	–	–	–	0.435	0.421	0.428	0.443	0.448	–	–	–	–	–	–	–	–	–
SK-LU-1	0.225	0.334	0.296	0.263	0.324	0.375	0.342	0.361	0.317	0.571	0.684	0.612	0.593	0.535	–	–	–	–
Calu-6	0.78	0.431	0.212	0.0896	–	–	–	–	–	–	–	–	–	–	–	–	–	–
SW 1573	0.694	0.601	0.139	0.156	0.634	0.797	0.682	0.741	0.611	0.483	0.594	0.51	0.532	0.433	–	–	–	–
IA-LM	0.574	0.246	0.15	0.0454	–	–	–	–	–	–	–	–	–	–	–	–	–	–
CAL-12T	1.32	1.43	0.491	0.38	0.612	0.447	0.721	0.911	0.543	–	–	–	–	–	0.676	0.564	0.453	0.29
NCI-H522	–	–	–	–	0.823	0.726	0.71	0.708	0.716	0.682	0.568	0.669	0.768	0.677	0.635	0.746	0.571	0.555
NCI-H650	–	–	–	–	0.496	0.467	0.643	0.494	0.565	0.281	0.335	–	0.311	0.312	0.722	1.09	0.309	0.217
COR-L 105	0.721	0.766	0.529	0.463	0.672	0.817	0.708	0.677	0.665	0.625	0.674	0.703	0.629	0.625	–	–	–	–
SW 900	–	–	–	–	0.684	0.595	0.782	0.604	0.53	0.422	0.408	0.423	0.428	0.453	–	0.587	0.472	0.404
A549	0.997	0.639	0.118	0.0499	–	–	–	–	–	0.256	0.263	0.25	0.307	0.234	–	–	–	–
NCI-H2009	0.802	0.58	0.19	0.148	0.69	0.599	0.698	0.699	0.601	0.374	0.332	0.364	0.376	0.283	–	–	–	–
